# Assay results from patent US20230406885A1, “CYCLIC PEPTIDES FOR TRAPPING INTERLEUKIN-1 BETA” (MERCK SHARP & DOHME LLC, priority 2022, published 2023).
# Where a SMILES comes first, the peptide text is derived from it. [ ]: non-standard residue; d: D form. Bip(4'-COOH) = N[C@@H](Cc1ccc(-c2ccc(C(=O)O)cc2)cc1)C(=O)O; 1Nal(3S-Me) = C[C@@H](c1cccc2ccccc12)[C@H](N)C(=O)O; hPhe(4-CF3) = N[C@@H](CCc1ccc(C(F)(F)F)cc1)C(=O)O; Ala(pyrimidin-5-yl) = N[C@@H](Cc1cncnc1)C(=O)O; Phe(4-COOH) = N[C@@H](Cc1ccc(C(=O)O)cc1)C(=O)O; Trp(7-aza) = N[C@@H](Cc1c[nH]c2ncccc12)C(=O)O; h3Pal(5-CN) = N#Cc1cncc(CC[C@H](N)C(=O)O)c1; Pro(4R-NH2) = N[C@H]1CN[C@H](C(=O)O)C1; AEF = NCCOc1ccc(C[C@H](N)C(=O)O)cc1; hTyr = N[C@@H](CCc1ccc(O)cc1)C(=O)O; dDab = NCC[C@@H](N)C(=O)O; dNMeA = CN[C@H](C)C(=O)O
# Molecular target: T1, Recombinant human IL-1β (Homo sapiens, UniProt P01584)
# T1 construct: purchased BioLegend 579404
# Assay: IL-6 assay in MRC5 cells: inhibition of IL-1β induced IL-6 secretion (AlphaLISA)
# Assay type: cell-based
# Settings: inhibition of IL-1β induced IL-6 secretion in MRC5 cells; IL-1β pre-incubated 1 hour with compound; read-out: MRC5 IC50
# Summary of the method: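 IL-1β at 2×EC80 in seeding medium (EMEM, 0.025% BSA) preincubated 1 h at ambient temperature with compound, then 3000 MRC5 cells/well added and incubated overnight at 37 °C, 5% CO2. IL-6 in conditioned medium quantified by AlphaLISA; IC50 from 4-parameter logistic fit.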
# T1 sequence (P01584 117-269): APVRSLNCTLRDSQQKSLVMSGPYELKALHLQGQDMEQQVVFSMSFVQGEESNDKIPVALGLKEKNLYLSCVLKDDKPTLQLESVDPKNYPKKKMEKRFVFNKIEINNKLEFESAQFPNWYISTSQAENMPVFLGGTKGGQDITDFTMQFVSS
row,SMILES,IC50
1,CC(=O)NCCOc1ccc(C[C@@H]2NC(=O)[C@H](CCc3ccc(O)cc3)NC(=O)[C@@H](C)NC(=O)[C@H](CC(C)C)NC(=O)[C@H](CCCCN)NC(=O)[C@H](Cc3ccc(-c4ccc(C(=O)O)cc4)cc3)NC(=O)CNC(=O)[C@@H](C)N(C)C(=O)[C@H](CC(=O)O)NC(=O)[C@H]([C@@H](C)c3cccc4ccccc34)NC(=O)[C@@H]3C[C@@H](N)CN3C(=O)CNC(=O)[C@H](Cc3ccc(C(=O)O)cc3)NC(=O)[C@H](Cc3c[nH]c4ccccc34)NC2=O)cc1 [Example 110] (cyclo([AEF](Ac)W[Phe(4-COOH)]G[Pro(4R-NH2)][1Nal(3S-Me)]D[dNMeA]G[Bip(4'-COOH)]KL[dA][hTyr])),0.195 nM
2,CC(=O)NCCOc1ccc(C[C@@H]2NC(=O)[C@H](CCc3cncc(C#N)c3)NC(=O)[C@@H](CCN)NC(=O)CNC(=O)[C@H](Cc3c[nH]c4ncccc34)NC(=O)[C@H](Cc3ccc(-c4ccc(C(=O)O)cc4)cc3)NC(=O)CNC(=O)[C@@H](C)N(C)C(=O)[C@H](CC(=O)O)NC(=O)[C@H]([C@@H](C)c3cccc4ccccc34)NC(=O)[C@@H]3C[C@@H](N)CN3C(=O)CNC(=O)[C@H](Cc3ccc(C(=O)O)cc3)NC(=O)[C@H](Cc3c[nH]c4ccccc34)NC2=O)cc1 [Example 114] (cyclo([AEF](Ac)W[Phe(4-COOH)]G[Pro(4R-NH2)][1Nal(3S-Me)]D[dNMeA]G[Bip(4'-COOH)][Trp(7-aza)]G[dDab][h3Pal(5-CN)])),0.0233 nM

# The remaining molecules from weak to strong by IC50, led by results:
row,IC50,SMILES
1,0.133 nM,CC(=O)NCCOc1ccc(C[C@@H]2NC(=O)[C@H](CCc3ccc(C(F)(F)F)cc3)NC(=O)[C@@H](C)NC(=O)[C@H](CO)NC(=O)[C@H](CCCCN)NC(=O)[C@H](Cc3ccc(-c4ccc(C(=O)O)cc4)cc3)NC(=O)CNC(=O)[C@@H](C)N(C)C(=O)[C@H](CC(=O)O)NC(=O)[C@H]([C@@H](C)c3cccc4ccccc34)NC(=O)[C@@H]3C[C@@H](N)CN3C(=O)CNC(=O)[C@H](Cc3ccc(C(=O)O)cc3)NC(=O)[C@H](Cc3c[nH]c4ccccc34)NC2=O)cc1 [Example 111] (cyclo([AEF](Ac)W[Phe(4-COOH)]G[Pro(4R-NH2)][1Nal(3S-Me)]D[dNMeA]G[Bip(4'-COOH)]KS[dA][hPhe(4-CF3)]))
2,0.0918 nM,CC(=O)NCCOc1ccc(C[C@@H]2NC(=O)[C@H](CCc3cncc(C#N)c3)NC(=O)[C@@H](CCN)NC(=O)CNC(=O)[C@H](Cc3cncnc3)NC(=O)[C@H](Cc3ccc(-c4ccc(C(=O)O)cc4)cc3)NC(=O)CNC(=O)[C@@H](C)N(C)C(=O)[C@H](CC(=O)O)NC(=O)[C@H]([C@@H](C)c3cccc4ccccc34)NC(=O)[C@@H]3C[C@@H](N)CN3C(=O)CNC(=O)[C@H](Cc3ccc(C(=O)O)cc3)NC(=O)[C@H](Cc3c[nH]c4ccccc34)NC2=O)cc1 [Example 113] (cyclo([AEF](Ac)W[Phe(4-COOH)]G[Pro(4R-NH2)][1Nal(3S-Me)]D[dNMeA]G[Bip(4'-COOH)][Ala(pyrimidin-5-yl)]G[dDab][h3Pal(5-CN)]))
3,0.0617 nM,CC(=O)NCCOc1ccc(C[C@@H]2NC(=O)[C@H](CCc3ccc(O)cc3)NC(=O)[C@@H](C)NC(=O)[C@H](CO)NC(=O)[C@H](CCCCN)NC(=O)[C@H](Cc3ccc(-c4ccc(C(=O)O)cc4)cc3)NC(=O)CNC(=O)[C@@H](C)N(C)C(=O)[C@H](CC(=O)O)NC(=O)[C@H]([C@@H](C)c3cccc4ccccc34)NC(=O)[C@@H]3C[C@@H](N)CN3C(=O)CNC(=O)[C@H](Cc3ccc(C(=O)O)cc3)NC(=O)[C@H](Cc3c[nH]c4ccccc34)NC2=O)cc1 [Example 112] (cyclo([AEF](Ac)W[Phe(4-COOH)]G[Pro(4R-NH2)][1Nal(3S-Me)]D[dNMeA]G[Bip(4'-COOH)]KS[dA][hTyr]))
